Experimental data as given in patent US11597724B2, “Herbicidally active 3-phenylisoxazoline-5-carboxamides of tetrahydro and dihydrofuran carboxylic acids and esters” (Bayer Aktiengesellschaft, priority 2017, dated 2023).

How the values were obtained:
Assay type in all cases: in vivo
[1] = Pre-emergence treatment, summary over harmful plants; details: 504 h, application rate of 0.08 kg of active substance or less per hectare, read-out: herbicidal action, pre-emergence treatment (very good activity)
Text: 1. Pre-Emergence Herbicidal Action and Crop Plant Compatibility
(§1) Seeds of monocotyledonous and dicotyledonous weed plants and crop plants are placed in plastic or wood fiber pots and covered with soil. The compounds of the invention, formulated in the form of wettable powders (WP) or as emulsion concentrates (EC), are then applied onto the surface of the covering soil as aqueous suspension or emulsion with addition of 0.5% additive at a water application rate of 600 l/ha (converted). After the treatment, the pots are placed in a greenhouse and kept under good growth conditions for the trial plants. After about 3 weeks, the effect of the preparations is scored visually in comparison with untreated controls as percentages. For example, 100% activity=the plants have died, 0% activity=like control plants.
As shown by the results, compounds according to the invention such as, for example, the compounds No. I-21 and other compounds from the tables (for example I-10, I-26, I-09, I-30, I-28, I-29, I-27, I-01, I-06, I-34, I-19, I-11, I-36, I-37, I-38, I-41, I-42, I-43, I-44, I-46, I-49) have, when used for pre-emergence treatment, very good activity (80% to 100% herbicidal action) against harmful plants such as Abutilon theophrasti, Alopecurus myosuroides, Amaranthus retroflexus, Avena fatua, Echinochloa crus-galli, Hordeum murinum, Lolium rigidum, Pharbitis purpurea, Polygonum convolvulus, Setaria viridis, Stellaria media, Veronica persica and Viola tricolor at an application rate of 0.08 kg of active substance or less per hectare.

Viola tricolor = assay: Pre-emergence herbicidal activity against VIOTR; details: dosage 80 g/ha
Text: as §1, with “1. Pre-Emergence Herbicidal Action and Crop Plant Compatibility Seeds of” for “Seeds of”, “control plants. VIOTR: Viola tricolor” for “control plants.”

Echinochloa crus-galli = assay: Pre-emergence herbicidal activity against ECHCG; details: dosage 80 g/ha, scored visually after about 3 weeks vs untreated controls (100% = plants have died, 0% = like control plants); for pest or weed control at 80 g/ha: Echinochloa crus-galli, 504 h
Text: as §1, with “1. Pre-Emergence Herbicidal Action and Crop Plant Compatibility Seeds of” for “Seeds of”, “control plants. ECHCG: Echinochloa crus-galli HORMU: Hordeum murinum” for “control plants.”

Abutilon theophrasti = assay: Pre-emergence herbicidal activity against ABUTH; details: dosage 80 g/ha
Text: as §1, with “1. Pre-Emergence Herbicidal Action and Crop Plant Compatibility Seeds of” for “Seeds of”, “control plants. ABUTH: Abutilon theophrasti ALOMY: Alopecurus myosuroides” for “control plants.”

Row | Structure (SMILES) | pest or weed control at 80 g/ha [1] | Pre-emergence herbicidal activity against VIOTR in % (Viola tricolor) | pest or weed control at 80 g/ha (Echinochloa crus-galli) | Pre-emergence herbicidal activity against ABUTH in % (Abutilon theophrasti) | Pre-emergence herbicidal activity against ECHCG in % (Echinochloa crus-galli)
1 | C=C[C@]1(C(=O)N[C@H]2CO[C@@H](C(=O)OC(C)(C)C)C2)CC(c2cc(F)cc(F)c2)=NO1 (mixture of isomers) [I-38, tert-butyl cis-4-[[(5S)-3-(3,5-difluorophenyl)-5-vinyl-4H-isoxazole-5-carbonyl]amino]tetrahydrofuran-2-carboxylate] | 80 to 100% | 100% | 100% |  | 
2 | COC(=O)[C@H]1C[C@@H](NC(=O)C2(C(F)(F)F)CC(c3cc(F)cc(F)c3)=NO2)CO1 (relative stereo) [I-06, methyl cis-4-[[3-(3,5-difluorophenyl)-5-(trifluoromethyl)-4H-isoxazole-5-carbonyl]amino]tetrahydrofuran-2-carboxylate] | 80 to 100% | 80% | 80% | 100% | 
3 | COC(=O)C1COCC1NC(=O)C1(OC)CC(c2cc(F)cc(F)c2)=NO1 (stereo not shown) [I-27, methyl 4-[[3-(3,5-difluorophenyl)-5-methoxy-4H-isoxazole-5-carbonyl]amino]tetrahydrofuran-3-carboxylate] | 80 to 100% | 90% |  |  | 
4 | C=C[C@]1(C(=O)N[C@H]2CO[C@@H](C(=O)OC)C2)CC(c2cc(F)cc(F)c2)=NO1 (mixture of isomers) [I-10, methyl cis-4-[[(5S)-3-(3,5-difluorophenyl)-5-vinyl-4H-isoxazole-5-carbonyl]amino]tetrahydrofuran-2-carboxylate] | 80 to 100% | 100% | 100% | 100% | 
5 | C=C[C@]1(C(=O)N[C@H]2CO[C@@H](C(=O)OC(C)C)C2)CC(c2cc(F)cc(F)c2)=NO1 (mixture of isomers) [I-36, isopropyl cis-4-[[(5S)-3-(3,5-difluorophenyl)-5-vinyl-4H-isoxazole-5-carbonyl]amino]tetrahydrofuran-2-carboxylate] | 80 to 100% | 100% | 100% |  | 
6 | C=C[C@]1(C(=O)N[C@H]2CO[C@@H](C(=O)OC)C2)CC(c2cc(F)cc(F)c2)=NO1 (single isomer, unassigned) [I-11] | 80 to 100% | 100% |  | 80% | 100%
7 | C=C[C@]1(C(=O)N[C@H]2CO[C@@H](C(=O)OCc3ccccc3)C2)CC(c2cc(F)cc(F)c2)=NO1 (mixture of isomers) [I-37, benzyl cis-4-[[(5S)-3-(3,5-difluorophenyl)-5-vinyl-4H-isoxazole-5-carbonyl]amino]tetrahydrofuran-2-carboxylate] | 80 to 100% | 100% | 90% |  | 
8 | COC(=O)[C@H]1C[C@@H](NC(=O)[C@@]2(C)CC(c3cc(F)cc(F)c3)=NO2)CO1 (mixture of isomers) [I-09, methyl cis-4-[[(5R)-3-(3,5-difluorophenyl)-5-methyl-4H-isoxazole-5-carbonyl]amino]tetrahydrofuran-2-carboxylate] | 80 to 100% |  | 90% | 100% | 
9 | CC(C)(C)OC(=O)C1CC(NC(=O)C2(C)CC(c3cc(F)cc(F)c3)=NO2)CO1 (mixture of isomers) [I-42] |  | 100% |  |  | 100%
10 | COC(=O)[C@H]1C[C@@H](NC(=O)C2(OC)CC(c3cc(C)cc(Br)c3)=NO2)CO1 (relative stereo) [I-08, methyl cis-4-[[3-(3-bromo-5-methylphenyl)-5-methoxy-4H-isoxazole-5-carbonyl]amino]tetrahydrofuran-2-carboxylate] |  |  |  | 100% | 
11 | COC(=O)[C@H]1C[C@@H](NC(=O)C2(C)CC(c3cc(C)cc(Br)c3)=NO2)CO1 (relative stereo) [I-04, methyl cis-4-[[3-(3-bromo-5-methylphenyl)-5-methyl-4H-isoxazole-5-carbonyl]amino]tetrahydrofuran-2-carboxylate] |  |  |  | 100% | 
12 | COC(=O)[C@H]1C[C@@H](NC(=O)C2(OC)CC(c3ccccc3)=NO2)CO1 (relative stereo) [I-14, methyl cis-4-[(5-methoxy-3-phenyl-4H-isoxazole-5-carbonyl)amino]tetrahydrofuran-2-carboxylate] |  |  |  | 100% | 
13 | COC(=O)C1CC(NC(=O)C2(C(C)(F)F)CC(c3cc(F)cc(F)c3)=NO2)CO1 (stereo not shown) [I-49] |  | 100% |  |  | 100%
14 | COC(=O)C1CC(NC(=O)C2(C)CC(c3cc(F)cc(F)c3)=NO2)CO1 (mixture of isomers) [I-48] |  | 100% |  |  | 90%
15 | C=C[C@]1(C(=O)N[C@H]2CO[C@@H](C(=O)OCC)C2)CC(c2cc(F)cc(F)c2)=NO1 (mixture of isomers) [I-35, ethyl cis-4-[[(5S)-3-(3,5-difluorophenyl)-5-vinyl-4H-isoxazole-5-carbonyl]amino]tetrahydrofuran-2-carboxylate] |  | 100% | 100% |  | 
